In ChEMBL document CHEMBL5365457, “Selective HDAC3 Inhibitors with Potent In Vivo Antitumor Efficacy against Triple-Negative Breast Cancer” (J Med Chem, 2023):
pIC50: −log10 of the molar value. Activity calls are given as the source filed them. The rule behind the calls is not given here.

Key:
Histone deacetylase 2 [1] = molecular target: T1, Histone deacetylase 2 (Homo sapiens, UniProt Q92769); experiment: Inhibition of human recombinant HDAC2 at 1 uM incubated for 30 mins by fluorescence based microplate assay relative to control
T1 sequence (Q92769 whole entry): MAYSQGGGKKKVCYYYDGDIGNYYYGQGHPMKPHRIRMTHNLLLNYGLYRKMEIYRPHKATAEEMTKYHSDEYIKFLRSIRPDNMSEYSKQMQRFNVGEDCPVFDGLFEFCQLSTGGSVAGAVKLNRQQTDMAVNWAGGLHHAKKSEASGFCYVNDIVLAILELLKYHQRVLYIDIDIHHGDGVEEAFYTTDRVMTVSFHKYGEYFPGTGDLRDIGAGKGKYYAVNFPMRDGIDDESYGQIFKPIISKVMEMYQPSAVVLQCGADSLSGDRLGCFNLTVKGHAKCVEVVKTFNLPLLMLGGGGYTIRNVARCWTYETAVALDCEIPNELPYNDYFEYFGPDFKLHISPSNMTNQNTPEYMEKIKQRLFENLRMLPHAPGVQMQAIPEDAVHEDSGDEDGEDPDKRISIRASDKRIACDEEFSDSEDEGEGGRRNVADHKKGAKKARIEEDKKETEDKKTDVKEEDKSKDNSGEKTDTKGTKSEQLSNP

Histone deacetylase 8 = molecular target: T2, Histone deacetylase 8 (Homo sapiens, UniProt Q9BY41); experiment: Inhibition of human recombinant HDAC8 incubated for 15 mins by fluorescence based microplate analysis
T2 sequence (Q9BY41 whole entry): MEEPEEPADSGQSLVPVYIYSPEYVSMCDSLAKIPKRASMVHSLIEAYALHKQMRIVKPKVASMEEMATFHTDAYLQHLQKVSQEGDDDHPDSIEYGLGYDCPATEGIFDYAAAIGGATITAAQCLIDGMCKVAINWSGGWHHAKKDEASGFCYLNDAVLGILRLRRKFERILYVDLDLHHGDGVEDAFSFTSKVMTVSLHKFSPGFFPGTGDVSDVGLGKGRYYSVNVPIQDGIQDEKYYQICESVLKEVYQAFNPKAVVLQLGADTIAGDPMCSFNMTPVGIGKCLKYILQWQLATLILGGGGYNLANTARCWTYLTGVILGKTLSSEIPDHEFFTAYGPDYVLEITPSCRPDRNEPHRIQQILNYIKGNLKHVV

Histone deacetylase 2 [2] = molecular target: T1, Histone deacetylase 2; experiment: Inhibition of human recombinant HDAC2 incubated for 30 mins by fluorescence based microplate analysis
Histone deacetylase 1 = Histone deacetylase 1 (Homo sapiens, UniProt Q13547); experiment: Inhibition of human recombinant HDAC1 incubated for 15 mins by fluorescence based microplate analysis
Sequence of Histone deacetylase 1 (Q13547 whole entry): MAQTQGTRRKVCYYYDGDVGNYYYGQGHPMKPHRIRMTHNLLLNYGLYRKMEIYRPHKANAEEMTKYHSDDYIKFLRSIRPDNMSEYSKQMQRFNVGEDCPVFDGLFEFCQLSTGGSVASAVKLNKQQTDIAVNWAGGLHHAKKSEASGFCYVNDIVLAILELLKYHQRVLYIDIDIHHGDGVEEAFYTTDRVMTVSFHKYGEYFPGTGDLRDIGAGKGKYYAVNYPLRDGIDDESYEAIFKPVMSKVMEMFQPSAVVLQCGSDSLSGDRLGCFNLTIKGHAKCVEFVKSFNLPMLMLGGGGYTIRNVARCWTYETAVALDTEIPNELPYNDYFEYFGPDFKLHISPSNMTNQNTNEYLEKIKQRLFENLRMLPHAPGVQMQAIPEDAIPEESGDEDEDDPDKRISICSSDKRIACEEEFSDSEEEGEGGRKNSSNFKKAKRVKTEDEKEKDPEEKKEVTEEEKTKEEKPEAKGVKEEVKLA

4T1 [3] = experiment: Cytotoxicity against mouse 4T1 cells assessed as inhibition of cell growth incubated for 72 hrs by MTT assay; type: functional, cell-based; conditions: 4T1, 72 h
4T1 [4] = experiment: Induction of apoptosis in mouse 4T1 cells assessed as nuclear fragmentation incubated for 72 hrs by acridine orange staining based analysis; type: functional, cell-based
4T1 [5] = experiment: Antitumor activity against mouse 4T1 cells implanted in BALB/c mouse assessed as upregulation of caspase-3 level in tumor at 5 to 15 mg/kg, ip by Western blot analysis; type: functional, organism-based; conditions: dose 5-15 mg/kg
4T1 [6] = experiment: Induction of apoptosis in mouse 4T1 cells assessed as increase caspase 3/7 level at 1 uM by Western blot analysis; type: functional, cell-based
[7] = Selectivity ratio of IC50 for cytotoxicity against human MCF-10A cells assessed as inhibition of cell growth to IC50 for cytotoxicity against human MCF7 cells assessed as inhibition of cell growth; type: toxicity, cell-based; conditions: MCF-10A cells versus MCF7 cells, read-out: Ratio IC50
[8] = Toxicity in BALB/c mouse implanted with mouse 4T1 cells assessed as heart damage at 5 to 15 mg/kg, ip measured after 21 days by H and E staining based assay; type: organism-based; conditions: in vivo, 504 h, dose 5-15 mg/kg, time 21 day
4T1 [9] = experiment: Induction of apoptosis in mouse 4T1 cells at 7.72 uM incubated for 72 hrs by annexin/PI staining based flow cytometry analysis (reference value: 1.35%); type: functional
4T1 [10] = experiment: In-vivo inhibition of HDAC3 in ip dosed BALB/c mouse implanted with mouse 4T1 cells assessed as hyperacetylation of H3K27 level by Western blot analysis; type: functional, organism-based; conditions: dose 5-15 mg/kg
4T1 [11] = experiment: Induction of apoptosis in mouse 4T1 cells at 110 nM incubated for 72 hrs by annexin/PI staining based flow cytometry analysis (reference value: 1.35%); type: functional
4T1 [12] = experiment: Antitumor activity against mouse 4T1 cells implanted in BALB/c mouse assessed as decrease in number of lung aggregated cells at 15 mg/kg, ip measured for 7 days by H and E staining based assay; type: functional, organism-based; conditions: time 7.0 day
4T1 [13] = experiment: In-vivo inhibition of HDAC3 in BALB/c mouse implanted with mouse 4T1 cells assessed as increase in acetylation of SMC3 level at 5 to 15 mg/kg, ip by Western blot analysis; type: functional, organism-based; conditions: dose 5-15 mg/kg
[14] = Selectivity ratio of IC50 for cytotoxicity against human HCEC cells assessed as inhibition of cell growth to IC50 for cytotoxicity against human MCF7 cells assessed as inhibition of cell growth; type: toxicity, cell-based; conditions: HCEC cells versus MCF7 cells, read-out: Ratio IC50
4T1 [15] = experiment: Induction of apoptosis in mouse 4T1 cells assessed as increase in cleaved caspase-3 level by Western blot analysis; type: functional, cell-based; conditions: dose 1.0 µM
4T1 [16] = experiment: Induction of apoptosis in mouse 4T1 cells assessed as cell shrinkage incubated for 72 hrs by acridine orange staining based analysis; type: functional
4T1 [17] = experiment: In-vivo inhibition of HDAC3 in ip dosed BALB/c mouse implanted with mouse 4T1 cells assessed as hyperacetylation of H3K9 level by Western blot analysis; type: functional, organism-based; conditions: dose 5-15 mg/kg
Histone deacetylase 3 = Histone deacetylase 3 (Homo sapiens, UniProt O15379); experiment: Inhibition of human recombinant HDAC3 at 1 uM measured after 30 mins by fluorescence based microplate assay relative to control
Sequence of Histone deacetylase 3 (O15379 whole entry): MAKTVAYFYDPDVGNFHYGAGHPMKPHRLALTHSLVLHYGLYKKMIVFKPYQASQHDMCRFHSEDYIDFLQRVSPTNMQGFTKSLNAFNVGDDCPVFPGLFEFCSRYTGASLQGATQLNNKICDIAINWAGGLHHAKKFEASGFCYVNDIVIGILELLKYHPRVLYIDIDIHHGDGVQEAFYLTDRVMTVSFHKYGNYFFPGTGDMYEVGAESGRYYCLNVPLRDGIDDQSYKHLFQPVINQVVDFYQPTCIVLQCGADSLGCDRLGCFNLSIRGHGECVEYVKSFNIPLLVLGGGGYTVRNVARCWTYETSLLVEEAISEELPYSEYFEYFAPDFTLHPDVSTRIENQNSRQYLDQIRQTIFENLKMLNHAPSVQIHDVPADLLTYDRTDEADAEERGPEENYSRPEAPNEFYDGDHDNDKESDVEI

inhibition (Histone deacetylase 2 [1]): < 17% | pIC50 (Histone deacetylase 8): 4.97 | pIC50 (Histone deacetylase 2 [2]): 5.77 | pIC50 (Histone deacetylase 1): 5.70 | inhibition (Histone deacetylase 3): > 70%
Compound: CCCNNC(=O)c1cnc(NCc2ccc(OC)cc2)cn1
pIC50 (4T1 [3]): 6.26 | Activity (4T1 [4]): Active | Activity (4T1 [5]): Active | Activity (4T1 [6]): Active | selectivity ratio [7]: 385 | Activity [8]: Non-Toxic | Activity (4T1 [9]): 46.9% | inhibition (4T1 [10]): Dose-Dependent Effect | Activity (4T1 [11]): 36.8% | Activity (4T1 [12]): Active | inhibition (4T1 [13]): Active | selectivity ratio [14]: 286 | Activity (4T1 [15]): Dose-Dependent Effect | Activity (4T1 [16]): Active | inhibition (4T1 [17]): Dose-Dependent Effect
